Numbered stars: 1 amine (or outer) side, 2 acyl side, 3 side chain; on linkers, the order of the positions; unused ones are H or OH. Bridge positions count the residues as written; N and C are the ends. Side chains are listed from the residue outwards. Peptide text beside a SMILES is read from it. * marks the point of attachment. C20 diacid = O=C(O)CCCCCCCCCCCCCCCCCCC(=O)*; γGlu = O=C(O)[C@H](CCC(=O)[*:2])N[*:1]; AEEA = NCCOCCOCC(=O)O
Tests used:
[1] = molecular target: T1, human calcitonin (a) receptor in BHK570 cells (Homo sapiens, UniProt P30988); experiment: ASSAY (II)a functional assay, human calcitonin receptor (CRE luciferase); type: cell-based; details: read-out: hCTR funct. EC50
T1 construct: expressed in transfected cells
T1 sequence (P30988 25-474): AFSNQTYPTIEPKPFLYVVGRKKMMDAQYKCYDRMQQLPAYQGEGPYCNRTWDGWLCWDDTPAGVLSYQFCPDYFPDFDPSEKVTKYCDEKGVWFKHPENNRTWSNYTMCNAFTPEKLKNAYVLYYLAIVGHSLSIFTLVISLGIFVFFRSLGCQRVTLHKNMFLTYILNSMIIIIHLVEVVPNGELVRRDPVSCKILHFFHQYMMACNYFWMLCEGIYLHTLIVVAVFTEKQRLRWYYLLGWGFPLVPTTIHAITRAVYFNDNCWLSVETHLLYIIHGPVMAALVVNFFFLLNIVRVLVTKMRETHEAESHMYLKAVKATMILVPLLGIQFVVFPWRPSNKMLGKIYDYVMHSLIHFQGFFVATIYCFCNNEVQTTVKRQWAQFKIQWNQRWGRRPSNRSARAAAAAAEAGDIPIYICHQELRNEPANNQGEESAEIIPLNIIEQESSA
Outline: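 Read-out: CRE-driven luciferase luminescence, single photon counting, after 30 min at room temperature with LucLite. BHK cells expressed calcitonin receptor alone or with RAMP-3 (amylin 3(a)). Cells were stimulated 3 h at 37° C in DMEM, 10% FBS, 10 mM Hepes, pH 7.4.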

[2] = ASSAY (III) ThT fibrillation assay for physical stability; type: physicochemical
Outline: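 Physical stability scored by ThT fluorescence (444 nm excitation, 485 nm emission) tracked every 20 min during 37 °C incubation with 960 rpm shaking, ThT at 1 μM final. Values are replicate means with SD at chosen times; HPLC against pramlintide standard gives initial and post-assay soluble concentrations.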

[3] = molecular target: T2, human calcitonin receptor (Homo sapiens, UniProt P30988); experiment: ASSAY (VII) binding to the human calcitonin receptor (SPA, 125I-Calcitonin); details: read-out: hCTR bind IC50;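 further: cell membranes (35 ng/µL) combined with SPA beads in 40 µL of pH 7.4 Hepes buffer, 384-well format, signal counted on a TopCounter instrument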
T2 construct: expressed in transfected cells
T2 sequence (P30988 25-474): T1 sequence (P30988 25-474)

Structure (SMILES): CC[C@H](C)[C@H](NC(=O)[C@H](C)NC(=O)CNC(=O)[C@H](Cc1ccccc1)NC(=O)[C@H](CC(N)=O)NC(=O)[C@@H]1CCCN1C(=O)[C@H](CO)NC(=O)[C@H](CO)NC(=O)[C@H](Cc1c[nH]cn1)NC(=O)[C@H](CCCNC(=N)N)NC(=O)[C@H](CC(C)C)NC(=O)[C@H](Cc1ccccc1)NC(=O)[C@H](Cc1c[nH]cn1)NC(=O)[C@H](C)NC(=O)[C@H](CC(C)C)NC(=O)[C@H](CCCNC(=N)N)NC(=O)[C@H](CCC(N)=O)NC(=O)[C@@H](NC(=O)[C@H](C)NC(=O)[C@@H]1CSSC[C@H](NC(=O)[C@@H](N)CCCCNC(=O)CC[C@H](NC(=O)CCCCCCCCCCCCCCCCCCC(=O)O)C(=O)O)C(=O)N[C@@H](CC(N)=O)C(=O)N[C@@H]([C@@H](C)O)C(=O)N[C@@H](C)C(=O)N[C@@H]([C@@H](C)O)C(=O)N1)[C@@H](C)O)C(=O)N1CCC[C@H]1C(=O)N[C@@H](CO)C(=O)N[C@@H](CO)C(=O)N[C@H](C(=O)N[C@@H](CC(N)=O)C(=O)N[C@H](C(=O)NCC(=O)N[C@@H](CO)C(=O)N[C@@H](Cc1c[nH]cn1)C(=O)N[C@H](C(=O)N[C@@H](Cc1ccc(O)cc1)C(N)=O)[C@@H](C)O)C(C)C)[C@@H](C)O [Example 66] (H-K([γGlu-C20 diacid])CNTATCATQRLAHFLRHSSPNFGAIPSSTNVGSHTY-NH2; disulfide 2-7; N-terminus assumed)
- EC50 [1]: 0.542 nM
- ThT pH 4.0 lag time (h) [2]: 45 h
- IC50 [3]: 18 nM

Structure (SMILES): CC[C@H](C)[C@H](NC(=O)[C@H](C)NC(=O)CNC(=O)[C@H](Cc1ccccc1)NC(=O)[C@H](CC(N)=O)NC(=O)[C@@H]1CCCN1C(=O)[C@H](CO)NC(=O)[C@H](CO)NC(=O)[C@H](Cc1c[nH]cn1)NC(=O)[C@H](CCCNC(=N)N)NC(=O)[C@H](CC(C)C)NC(=O)[C@H](Cc1ccccc1)NC(=O)[C@H](CC(N)=O)NC(=O)[C@H](C)NC(=O)[C@H](CC(C)C)NC(=O)[C@H](CCCNC(=N)N)NC(=O)[C@H](CCC(N)=O)NC(=O)[C@@H](NC(=O)[C@H](C)NC(=O)[C@@H]1CSSC[C@H](NC(=O)[C@@H](N)CCCCNC(=O)COCCOCCNC(=O)CC[C@H](NC(=O)CCCCCCCCCCCCCCCCCCC(=O)O)C(=O)O)C(=O)N[C@@H](CC(N)=O)C(=O)N[C@@H]([C@@H](C)O)C(=O)N[C@@H](C)C(=O)N[C@@H]([C@@H](C)O)C(=O)N1)[C@@H](C)O)C(=O)N1CCC[C@H]1C(=O)N[C@@H](CO)C(=O)N[C@@H](CO)C(=O)N[C@H](C(=O)N[C@@H](CC(N)=O)C(=O)N[C@H](C(=O)NCC(=O)N[C@@H](CCCNC(=N)N)C(=O)N[C@@H](CC(N)=O)C(=O)N[C@H](C(=O)N[C@@H](Cc1ccc(O)cc1)C(N)=O)[C@@H](C)O)C(C)C)[C@@H](C)O [Example 78] (H-K([AEEA-γGlu-C20 diacid])CNTATCATQRLANFLRHSSPNFGAIPSSTNVGRNTY-NH2; disulfide 2-7 (inferred))
- EC50 [1]: 8.17 nM
- ThT pH 4.0 lag time (h) [2]: 13 h
- IC50 [3]: 36.6 nM

Structure (SMILES): CC[C@H](C)[C@H](NC(=O)[C@H](C)NC(=O)CNC(=O)[C@H](Cc1ccccc1)NC(=O)[C@H](CC(N)=O)NC(=O)[C@H](CCCCNC(=O)CC[C@H](NC(=O)CC[C@H](NC(=O)CCCCCCCCCCCCCCCCCCC(=O)O)C(=O)O)C(=O)O)NC(=O)[C@H](CO)NC(=O)[C@H](CO)NC(=O)[C@H](Cc1c[nH]cn1)NC(=O)[C@H](CCCNC(=N)N)NC(=O)[C@H](CC(C)C)NC(=O)[C@H](Cc1ccccc1)NC(=O)[C@H](CC(=O)O)NC(=O)[C@H](C)NC(=O)[C@H](CC(C)C)NC(=O)[C@H](CCCNC(=N)N)NC(=O)[C@H](CCC(N)=O)NC(=O)[C@@H](NC(=O)[C@H](C)NC(=O)[C@@H]1CSSC[C@H](NC(=O)[C@@H](N)CCCCN)C(=O)N[C@@H](CC(N)=O)C(=O)N[C@@H]([C@@H](C)O)C(=O)N[C@@H](C)C(=O)N[C@@H]([C@@H](C)O)C(=O)N1)[C@@H](C)O)C(=O)N1CCC[C@H]1C(=O)N[C@@H](CO)C(=O)N[C@@H](CO)C(=O)N[C@H](C(=O)N[C@@H](CC(N)=O)C(=O)N[C@H](C(=O)NCC(=O)N[C@@H](CO)C(=O)N[C@@H](CC(=O)O)C(=O)N[C@H](C(=O)N[C@@H](Cc1ccc(O)cc1)C(N)=O)[C@@H](C)O)C(C)C)[C@@H](C)O [Example 59] (H-KCNTATCATQRLADFLRHSSK([γGlu-γGlu-C20 diacid])NFGAIPSSTNVGSDTY-NH2; disulfide 2-7; N-terminus assumed)
- EC50 [1]: 1.95 nM
- ThT pH 4.0 lag time (h) [2]: 23 h
- IC50 [3]: 5.14 nM

Structure (SMILES): CC[C@H](C)[C@H](NC(=O)[C@H](C)NC(=O)CNC(=O)[C@H](Cc1ccccc1)NC(=O)[C@H](CC(N)=O)NC(=O)[C@@H]1CCCN1C(=O)[C@H](CO)NC(=O)[C@H](CO)NC(=O)[C@H](Cc1c[nH]cn1)NC(=O)[C@H](CCCNC(=N)N)NC(=O)[C@H](CC(C)C)NC(=O)[C@H](Cc1ccccc1)NC(=O)[C@H](CC(N)=O)NC(=O)[C@H](C)NC(=O)[C@H](CC(C)C)NC(=O)[C@H](CCCNC(=N)N)NC(=O)[C@H](CCC(N)=O)NC(=O)[C@@H](NC(=O)[C@H](C)NC(=O)[C@@H]1CSSC[C@H](NC(=O)[C@H](CCCNC(=N)N)NC(=O)[C@@H](N)CCCCNC(=O)CC[C@H](NC(=O)CCCCCCCCCCCCCCCCCCC(=O)O)C(=O)O)C(=O)N[C@@H](CC(N)=O)C(=O)N[C@@H]([C@@H](C)O)C(=O)N[C@@H](C)C(=O)N[C@@H]([C@@H](C)O)C(=O)N1)[C@@H](C)O)C(=O)N1CCC[C@H]1C(=O)N[C@@H](CO)C(=O)N[C@@H](CO)C(=O)N[C@H](C(=O)N[C@@H](CC(N)=O)C(=O)N[C@H](C(=O)NCC(=O)N[C@@H](CO)C(=O)N[C@@H](Cc1c[nH]cn1)C(=O)N[C@H](C(=O)N[C@@H](Cc1ccc(O)cc1)C(N)=O)[C@@H](C)O)C(C)C)[C@@H](C)O [Example 44] (H-K([γGlu-C20 diacid])RCNTATCATQRLANFLRHSSPNFGAIPSSTNVGSHTY-NH2; disulfide 3-8)
- EC50 [1]: 4.75 nM
- ThT pH 4.0 lag time (h) [2]: 45 h
- IC50 [3]: 4.87 nM

Structure (SMILES): CC[C@H](C)[C@H](NC(=O)[C@H](C)NC(=O)CNC(=O)[C@H](Cc1ccccc1)NC(=O)[C@H](CC(N)=O)NC(=O)[C@@H]1CCCN1C(=O)[C@H](CO)NC(=O)[C@H](CO)NC(=O)[C@H](Cc1c[nH]cn1)NC(=O)[C@H](CCCNC(=N)N)NC(=O)[C@H](CC(C)C)NC(=O)[C@H](Cc1ccccc1)NC(=O)[C@H](Cc1c[nH]cn1)NC(=O)[C@H](C)NC(=O)[C@H](CC(C)C)NC(=O)[C@H](CCCNC(=N)N)NC(=O)[C@H](CCC(N)=O)NC(=O)[C@@H](NC(=O)[C@H](C)NC(=O)[C@@H]1CSSC[C@H](NC(=O)[C@@H](N)CCCCNC(=O)COCCOCCNC(=O)CCCCCCCCCCCCCCCCCCC(=O)O)C(=O)N[C@@H](CC(N)=O)C(=O)N[C@@H]([C@@H](C)O)C(=O)N[C@@H](C)C(=O)N[C@@H]([C@@H](C)O)C(=O)N1)[C@@H](C)O)C(=O)N1CCC[C@H]1C(=O)N[C@@H](CO)C(=O)N[C@@H](CO)C(=O)N[C@H](C(=O)N[C@@H](CC(N)=O)C(=O)N[C@H](C(=O)NCC(=O)N[C@@H](CO)C(=O)N[C@@H](CC(N)=O)C(=O)N[C@H](C(=O)N[C@@H](Cc1ccc(O)cc1)C(N)=O)[C@@H](C)O)C(C)C)[C@@H](C)O [Example 90]
- EC50 [1]: 0.236 nM
- ThT pH 4.0 lag time (h) [2]: 10 h

— patent publication US9023789B2, “Amylin analogs and pharmaceutical compositions thereof” (Novo Nordisk A/S, priority 2012, dated 2015)
